Values of other authors as cited in EP1121935B1, “Pharmaceutical composition containing a small or medium size peptide” (Patents Exploitation Company B.V., priority 2000, dated 2001).

Assays:
[1] = solutions free from preservative; polystyrene, polypropylene and glass tubes; 24 hours at room temperature
[2] = system: nasal ciliar motility; conditions: reported by Hofmann T. et al., 1998

| Substance | loss of active principle because of the adsorption by the walls [1] | effect on nasal ciliar motility [2] |
| --- | --- | --- |
| 1-(3-mercaptopropanoic acid)-8-D-argininevasopressin [desmopressin] | about the half |  |
| benzalkonium chloride |  | irreversible suppression of the nasal ciliar motility |
